Measurements published in patent US20080051454A1, “Compositions and methods for transient receptor potential vanilloid (TRPV) channel mediated treatments” (The Board of Trustees Operating Michigan State University, priority 2006, published 2008).

How the values were obtained:
hearts of WT mice = assay: Langendorff perfused heart, ischemia and reperfusion (I/R) with OLDA, wild type; parameters: species or system mouse; settings: antagonist 1×10^−6 M
Method: The following measurements were made on the two types of heart tissue: left ventricular end-diastolic pressure (LVEDP), left ventricular developed pressure (LVDP), coronary flow (CF), and left ventricular (LV) peak positive rate of pressure change/rate of time change (+dP/dt) were evaluated after I/R.

mesenteric arteries [1] = assay: MethA-induced CGRP release from isolated mesenteric arteries (radioimmunoassay); parameters: species or system rat; settings: CAPZ 10 μM, MethA 10 μM; NS or HS
Method: The arteries were dissected free of fat and connective tissues.
The preparations were incubated in a Krebs' solution of the following compositions (in mM): NaCl 119, NaHCO3 25, KH2PO4 1.2, MgSO4 1.5, CaCl2 2.5, KCl 4.7, and D-glucose 11. The Krebs' solution was maintained at 37 °C and gassed with 95% O2 and 5% CO2. After 1 h stabilization period, the arteries were transferred to another chamber containing 1 ml of Krebs' solution with the addition of 0.05% BSA and drugs. […] The tissues were removed after 20 min incubation, and the solutions were collected. At the end of the experiment, the tissues were blotted and weighted.
This antibody has 100% cross-reactivity with rat α-CGRP and 79% with rat β-CGRP. There is no cross-reactivity with rat amylin, calcitonin, somatostatin, or substance P.

male Wistar rats = assay: Depressor effect of 20-HETE analog DSR given IV, with or without antagonists; format: in vivo, rat; settings: DSR 1 mg/kg with CAPZ 3 mg/kg, RP67580 4 mg/kg or CGRP 8-37 3 mg/kg
WT and TRPV1−/− hearts = assay: OLDA-induced CGRP and SP release from hearts (radioimmunoassay); parameters: species or system mouse
mesenteric arteries [2] = assay: NADA-induced CGRP release from isolated mesenteric arteries (radioimmunoassay); parameters: species or system rat; settings: CAPZ 10 μM pretreatment, NADA 10 μM; NS or HS
Method: After an 1 h stabilization period, the arteries were transferred to another chamber containing 1 ml of Krebs's solution with the addition of 0.05% BSA and drugs including NADA (1 or 10 μM) or CAPZ (10 μM). The tissues were removed after 20 min incubation, and the solutions were collected and evaporated. […] At the end of the experiment, the tissues were blotted and weighted. […] The results are expressed as pg of milligram of tissues.
This antibody has 100% cross-reactivity with rat a-CGRP and 79% with β-CGRP. There is no cross-reactivity with rat amylin, calcitonin, somatostatin, or substance P. The assay was performed following the manufacturer's protocol.

Wistar rats fed HS diet = assay: Blood pressure after i.v. SR141716A or CAPZ in conscious rats fed HS diet (Example I); format: in vivo, rat; settings: 3 mg/kg iv
Method: Experiments were approved by the Institutional Animals Care and Use Committee. Experiments were performed using male Wistar rats (Charles River Laboratory, Wilmington, Mass.). Rats (6 weeks old) were housed in the animal facility for 1 week before the experiments. Rats were then randomly assigned to a normal-sodium (NS) diet (0.4% of Na+ by weight, Harlan Teklad) or HS (4% of Na+ by weight; Harlan Teklad) for 3 weeks. Rats drank water ad libitum throughout the experiment.
Surgical Preparation and MAP measurements: The rats were anesthetized with ketamine and xylazine (80 and 4 mg/kg intraperitoneally, respectively) for implantation of vascular catheters or with urethane ([…] intraperitoneally) throughout protocol 2. […]
Protocol 1: Rats fed a NS or HS diet were randomly assigned to 5 groups for intravenous injection of vehicle or MethA alone or in combination with SR141716A (a CB1 receptor antagonist), CAPZ (a VR1 receptor antagonist), or the combination of the 2 (n=5 to 8). Baseline MAP and its response to the aforementioned drugs were determined 3 hours after surgery when animals were fully awake and unrestrained as described previously. […]

**Q.** Which “effect on protective effect of OLDA in WT hearts” value (hearts of WT mice) does the source give for `Oc1cc2c(cc1O)CN(C(=S)NCCc1ccc(Cl)cc1)CCC2` [CAPZ, N-[2-(4-Chlorophenyl)ethyl]-1,3,4,5-tetrahydro-7,8-dihydroxy-2H-2-benzazepine-2-carbothioamide] here?
**A.** abolished

**Q.** And the “effect on MethA-induced CGRP release” value (mesenteric arteries [1])?
**A.** blocked

**Q.** What about the “DSR induced-depressor effect after antagonist” value (male Wistar rats) of the same compound?
**A.** 8.5±2.5 mmHg

**Q.** And the “effect on OLDA-increased CGRP and SP release in WT hearts” value (WT and TRPV1−/− hearts)?
**A.** blocked

**Q.** What about the “effect on NADA-induced CGRP release” value (mesenteric arteries [2]) of the same compound?
**A.** blocked

**Q.** What about the “duration of transient elevation in blood pressure after injection” value (Wistar rats fed HS diet) of the same compound?
**A.** ≤ 7 min
